The values below come from patent publication US20060167081A1, “Ep4 receptor agonists” (priority 2002, published 2006).

The structures appear in SMILES notation.

The subject of experiment [1] is intracellular cAMP. Briefly: Intracellular cAMP in osteoblastic cell lines. The format is cell-based, rat. Here is the method:
(§1) Cell Cultures—RP-1 periosteal cells are spontaneously immortalized from primary cultures of periosteal cells from tibae of 4-week old Sprague-Dawley rats and are cultured in DMEM (BRL, Gaithersburg, Md.) with 10% fetal bovine serum (JRP Biosciences, Lenexa, KS). […] RCT-1 and RCT-3 are clonal cell lines immortalized by SV40 large T antigen from cells released from fetal rat calvair by a cmbination collagenase/hyaluronidase digestion. RCT-1 cells, derived from cells released during the first 10 minutes of digestion (fraction I), are cultured in RPMI 1640 medium (BRL) with 10% fetal bovine serum and 0.4 mg/ml G418 (BRL). These cells differentiate and express osteoblastic features upon retinoic acid treatment. RCT-3 cells, immortalized from osteoblast-enriched fraction m cells, are cultured in F-12 medium (BRL) with 5% Fetal bovine serum and 0.4 mg/ml G418. TRAB-11 cells are also immortalized by SV40 large T antigen from adult rat tibia and are cultured in RPMI 1640 medium with 10% FBS and 0.4 mg/ml G418. ROS 17/12.8 rat osteosarcoma cells are cultured in F-12 containing 5% PBS. Osteoblast-enriched (fraction III) primary fetal rat calvaria cells are obtained by collagenase/hyaluronidase digestion of calvariae of 19 day-old rat fetuses. See Rodan et al., Growth stimulation of rat calvaria osteoblastic cells by acidic FGF, Endocrinology, 121, 1919-1923 (1987), which is incorporated by reference herein in its entirety. Cells are released during 30-50 minutes digestion (fraction III) and are cultured in F-12 medium containing 5% FBS. P815 (mouse mastocytoma) cells, cultured in Eagles MEM with 10% FBS, and NRK (normal rat kidney fibroblasts) cells, cultured in DMEM with 10% […], are used as positive and negative controls for the expression of EP4, respectively. See Abramovitz et al., Human prostanoid receptors: cloning and characterization. In: Samulesson B. et al. ed) Advances in prostaglandin, Thrombosznes and leukotriene research, vol. […]

The subject of experiment [2] is EP4 mRNA. Briefly: EP4 mRNA levels in bone derived cell lines (Northern blot). The format is cell-based, rat. The protocol: as §1
The test system of experiment [3] is EP2 mRNA. In words: EP2 mRNA in RP-1 periosteal cells (Northern blot). The format is cell-based, rat. The note with it: RP-1 cells. Here is the method: Cell Cultures—RP-1 periosteal cells are spontaneously immortalized from primary cultures of periosteal cells from tibae of 4-week old Sprague-Dawley rats and are cultured in DMEM (BRL, Gaithersburg, Md.) with 10% fetal bovine serum (JRP Biosciences, Lenexa, KS). […] RCT-1 and RCT-3 are clonal cell lines immortalized by SV40 large T antigen from cells released from fetal rat calvair by a cmbination collagenase/hyaluronidase digestion. RCT-1 cells, derived from cells released during the first 10 minutes of digestion (fraction I), are cultured in RPMI 1640 medium (BRL) with 10% fetal bovine serum and 0.4 mg/ml G418 (BRL). These cells differentiate and express osteoblastic features upon retinoic acid treatment. RCT-3 cells, immortalized from osteoblast-enriched fraction m cells, are cultured in F-12 medium (BRL) with 5% Fetal bovine serum and 0.4 mg/ml G418. TRAB-11 cells are also immortalized by SV40 large T antigen from adult rat tibia and are cultured in RPMI 1640 medium with 10% FBS and 0.4 mg/ml G418. ROS 17/12.8 rat osteosarcoma cells are cultured in F-12 containing 5% PBS. Osteoblast-enriched (fraction III) primary fetal rat calvaria cells are obtained by collagenase/hyaluronidase digestion of calvariae of 19 day-old rat fetuses. […]

Experiment [4] deals with EP4 mRNA. Briefly: EP4 mRNA levels in vivo in bone tissue (Northern blot). Further details: species or system rat. The note with it: tibial diaphysis, five-week-old male rats, 3-6 mg/Kg. From the text:
Animal Procedures—For mRNA localization experiments, 5-week old Sprague-Dawley rats (Charles River) are euthanized by CO2, their tibiae and calvariae are excised, cleaned of soft tissues and frozen immediately in liquid nitrogen. […] Animals are euthanized at several time points post-injection and their tibiae and calvariae, as well as samples from lung and kidney tissues are frozen in liquid nitrogen.
Northern Blot Analysis—Total RNA is extracted from the tibial metaphysis or diaphysis and calvaria using a guanidinium isothiocyanate-phenol-chloroform method after pulverizing frozen bone samples by a tissue homogenizer. See P. Chomczynski et al., Single-step method of RNA isolation by acid guanidium thiocyanate-phenol-chloroform extraction., Analyt Biochem, 162, 156-159 (1987), which is incorporated by reference herein in its entirety. RNA samples ([…]) are separated on 0.9% agarose/formaldehyde gels and transferred onto nylon membranes (Boehringer Mannheim, Germany). Membranes are prehybridized in Hybrisol I (Oncor, Gaithersburg, Md.) and 0.5 mg/ml sonicated salmon sperm DNA (Boehringer) at 42° C. for 3 hours and are hybridized at 420C with rat EP2 and mouse EP4 cDNA probes labeled with [^32P]-dCTP (Amersham, Buckinghamshire, UK) by random priming using the rediprime kit (Amersham). […]

The subject of experiment [5] is EP2 mRNA. In words: EP2 mRNA in vivo in bone tissue (Northern blot). Also noted: species or system rat.
In experiment [6] the test system is EP4 mRNA. In words: Localization of EP4 mRNA expression in bone tissue (in situ hybridization). It counts as in vivo, rat. Particulars: single anabolic dose, rats. Here is the method: Animal Procedures—For mRNA localization experiments, 5-week old Sprague-Dawley rats (Charles River) are euthanized by CO2, their tibiae and calvariae are excised, cleaned of soft tissues and frozen immediately in liquid nitrogen. For EP4 regulation experiments, 6-week old rats are given a single injection of either vehicle (7% ethanol in sterile water) or an anabolic dose of PGE2 (Cayman Chemical, Ann Arbor, Mich.), 3-6 mg/kg in the same vehicle) intraperitoneally. Animals are euthanized at several time points post-injection and their tibiae and calvariae, as well as samples from lung and kidney tissues are frozen in liquid nitrogen.
In-Situ Hybridization—Frozen tibiae are sectioned coronally at […] thickness and sections are mounted on charged slides (Probe On Plus, Fisher Scientific, Springfield, N.J.) and are kept at −70° C. until hybridization. cRNA probes are labeled with ^35S-UTPgS ([CN, Costa Mesa, CA) using a Riboprobe II kit (Promega Madison, Wis.). Hybridization is performed overnight at 50° C. […]
Localization of EP4 mRNA expression in bone tissue—In situ hybridization is used in order to localize cells expressing EP4 in bone. In control experiment (vehicle-injected) rats, low expression of EP4 is detected in bone marrow cells. […]

Consider `CCCCC[C@H](O)/C=C/[C@H]1[C@H](O)CC(=O)[C@@H]1C/C=C\CCCC(=O)O` [PGE2], for which the “effect on intracellular cAMP” value is “markedly induced” in experiment [1] (RCT-3 cells), “no effect” in experiment [1] (ROS 17/2.8 cells) and “markedly induced” in experiment [1] (TRAB-11 cells). Also, the “EP4 mRNA levels” value in experiment [2] (RCT-3 cells) is “no effect”; in experiment [2] (RP-1 periosteal cells, 10^-6 M), “rapidly increases”; in experiment [4] (systemic) it was “rapidly increased”. The “time of peak of EP4 mRNA levels after treatment” value in experiment [2] (RP-1 periosteal cells, 10^-6 M) was determined as 2 h. Further, the “induction of EP2 mRNA” value in experiment [3] and in experiment [5] was “does not induce” in each case. Also, the “time of peak of EP4 mRNA levels after injection” value in experiment [4] is on record as 2 h. The “expression of EP4 in bone marrow cells” value in experiment [6] is reported as “increased”.
